Measurements from ChEMBL document CHEMBL3046890, “Synthesis and Herbicidal Activity of Sulfonylureas; SL-950 and Its Related Compounds” (1995).

Columns and labels:
Type in all cases: functional
Digitaria sanguinalis [1] = assay: Post-emergence herbicidal activity against two-leaf stage Digitaria sanguinalis (hairy crabgrass) assessed as efficacy of weed growth control at 60 g ai/ha under greenhouse conditions
Digitaria sanguinalis [2] = assay: Post-emergence herbicidal activity against two-leaf stage Digitaria sanguinalis (hairy crabgrass) assessed as efficacy of weed growth control at 80 g ai/ha under greenhouse conditions
Portulaca oleracea [3] = assay: Post-emergence herbicidal activity against three-leaf stage Portulaca oleracea assessed as efficacy of weed growth control at 750 g ai/ha under greenhouse conditions
Digitaria sanguinalis [4] = assay: Post-emergence herbicidal activity against two-leaf stage Digitaria sanguinalis (hairy crabgrass) assessed as efficacy of weed growth control at 40 g ai/ha under greenhouse conditions
Senna tora [5] = assay: Post-emergence herbicidal activity against one-leaf stage Senna tora assessed as efficacy of weed growth control at 80 g ai/ha under greenhouse conditions
Xanthium strumarium = assay: Post emergence herbicidal activity against Xanthium strumarium (cocklebur) assessed as inhibition of weed growth at 125 g ai/ha measured 22 to 37 days after compound application under greenhouse conditions; details: read-out: GI
Galinsoga quadriradiata = assay: Post-emergence herbicidal activity against four-leafstage of Galinsoga quadriradiata assessed as efficacy of weed growth control at 60 g ai/ha under greenhouse conditions
Cynodon dactylon [6] = assay: Post-emergence herbicidal activity against 15 cm leaf stage Cynodon dactylon assessed as efficacy of weed growth control at 40 g ai/ha under greenhouse conditions
Abutilon theophrasti [7] = assay: Post-emergence herbicidal activity against one-leaf stage Abutilon theophrasti (velvetleaf) assessed as efficacy of weed growth control at 80 g ai/ha under greenhouse conditions
Avena fatua [8] = assay: Post emergence herbicidal activity against three-leaf stage Avena fatua assessed as efficacy of weed growth control at 40 g ai/ha under greenhouse conditions
Solanum nigrum [9] = assay: Post emergence herbicidal activity against four-leaf stage Solanum nigrum (black nightshade) assessed as efficacy of weed growth control at 40 g ai/ha under greenhouse conditions
Amaranthus viridis [10] = assay: Post-emergence herbicidal activity against three-leaf stage Amaranthus viridis assessed as efficacy of weed growth control at 750 g ai/ha under greenhouse conditions
Eleusine indica [11] = assay: Post emergence herbicidal activity against three-leaf stage Eleusine indica assessed as efficacy of weed growth control at 60 g ai/ha under greenhouse conditions
Sorghum halepense [12] = assay: Post emergence herbicidal activity against four to five-leaf stage Sorghum halepense (Johnson grass) assessed as efficacy of weed growth control at 750 g ai/ha under greenhouse conditions
Capsella bursa-pastoris [13] = assay: Post-emergence herbicidal activity against four-leaf stage Capsella bursa-pastoris assessed as efficacy of weed growth control at 80 g ai/ha under greenhouse conditions
Capsella bursa-pastoris [14] = assay: Post-emergence herbicidal activity against four-leafstage Capsella bursa-pastoris assessed as efficacy of weed growth control at 60 g ai/ha under greenhouse conditions
Portulaca oleracea [15] = assay: Post-emergence herbicidal activity against three-leaf stage Portulaca oleracea assessed as efficacy of weed growth control at 40 g ai/ha under greenhouse conditions
Commelina communis [16] = assay: Post emergence herbicidal activity against two-leaf stage Commelina communis (Asiatic dayflower) assessed as efficacy of weed growth control at 80 g ai/ha under greenhouse conditions
Amaranthus viridis [17] = assay: Post-emergence herbicidal activity against three-leaf stage Amaranthus viridis assessed as efficacy of weed growth control at 80 g ai/ha under greenhouse conditions
Setaria viridis [18] = assay: Post-emergence herbicidal activity against two-leaf stage Setaria viridis (green foxtail) assessed as efficacy of weed growth control at 60 g ai/ha under greenhouse conditions
Sorghum halepense [19] = assay: Post emergence herbicidal activity against four to five-leaf stage Sorghum halepense (Johnson grass) assessed as efficacy of weed growth control at 80 g ai/ha under greenhouse conditions
Portulaca oleracea [20] = assay: Post-emergence herbicidal activity against three-leaf stage Portulaca oleracea assessed as efficacy of weed growth control at 60 g ai/ha under greenhouse conditions
Commelina communis [21] = assay: Post emergence herbicidal activity against two-leaf stage Commelina communis (Asiatic dayflower) assessed as efficacy of weed growth control at 750 g ai/ha under greenhouse conditions
Setaria viridis [22] = assay: Post-emergence herbicidal activity against two-leaf stage Setaria viridis (green foxtail) assessed as efficacy of weed growth control at 40 g ai/ha under greenhouse conditions
Capsella bursa-pastoris [23] = assay: Post-emergence herbicidal activity against four-leafstage Capsella bursa-pastoris assessed as efficacy of weed growth control at 40 g ai/ha under greenhouse conditions
Setaria viridis [24] = assay: Post-emergence herbicidal activity against two-leaf stage Setaria viridis (green foxtail) assessed as efficacy of weed growth control at 80 g ai/ha under greenhouse conditions
Portulaca oleracea [25] = assay: Post-emergence herbicidal activity against three-leaf stage Portulaca oleracea assessed as efficacy of weed growth control at 80 g ai/ha under greenhouse conditions
Solanum nigrum [26] = assay: Post emergence herbicidal activity against four-leaf stage Solanum nigrum (black nightshade) assessed as efficacy of weed growth control at 80 g ai/ha under greenhouse conditions
Avena fatua [27] = assay: Post emergence herbicidal activity against three-leaf stage Avena fatua assessed as efficacy of weed growth control at 60 g ai/ha under greenhouse conditions
Senna tora [28] = assay: Post-emergence herbicidal activity against one-leaf stage Senna tora assessed as efficacy of weed growth control at 60 g ai/ha under greenhouse conditions
Eleusine indica [29] = assay: Post emergence herbicidal activity against three-leaf stage Eleusine indica assessed as efficacy of weed growth control at 750 g ai/ha under greenhouse conditions
Cyperus rotundus = assay: Post-emergence herbicidal activity against four to five-leaf stage Cyperus rotundus assessed as efficacy of weed growth control at 40 g ai/ha under greenhouse conditions
Sida spinosa [30] = assay: Post-emergence herbicidal activity against two-leaf stage Sida spinosa assessed as efficacy of weed growth control at 80 g ai/ha under greenhouse conditions
Zea mays = assay: Post emergence phyototoxic activity against Zea mays (maize) plants assessed as inhibition of plant growth at 125 g ai/ha measured 22 to 37 days after compound application under greenhouse conditions; details: read-out: GI
Abutilon theophrasti [31] = assay: Post-emergence herbicidal activity against one-leaf stage Abutilon theophrasti (velvetleaf) assessed as efficacy of weed growth control at 60 g ai/ha under greenhouse conditions
Elymus repens = assay: Post-emergence herbicidal activity against three to four-leaf stage Elymus repens (couch grass) assessed as efficacy of weed growth control at 60 g ai/ha under greenhouse conditions
Cynodon dactylon [32] = assay: Post-emergence herbicidal activity against 15 cm leaf stage Cynodon dactylon assessed as efficacy of weed growth control at 60 g ai/ha under greenhouse conditions
Echinochloa crus-galli = assay: Post-emergence herbicidal activity against three-leaf stage Echinochloa crus-galli (barnyard grass) assessed as efficacy of weed growth control at 80 g ai/ha under greenhouse conditions
Sida spinosa [33] = assay: Post-emergence herbicidal activity against two-leaf stage Sida spinosa assessed as efficacy of weed growth control at 40 g ai/ha under greenhouse conditions
Cynodon dactylon [34] = assay: Post-emergence herbicidal activity against 15 cm leaf stage Cynodon dactylon assessed as efficacy of weed growth control at 750 g ai/ha under greenhouse conditions
Cynodon dactylon [35] = assay: Post-emergence herbicidal activity against 15 cm leaf stage Cynodon dactylon assessed as efficacy of weed growth control at 80 g ai/ha under greenhouse conditions

COc1cc(OC)nc(NC(=O)NS(=O)(=O)c2ncccc2C(=O)N(C)C)n1 [NICOSULFURON]
0%: inhibition of growth at 125 g/ha (Zea mays)
50%: Efficacy (Solanum nigrum [9]) | Efficacy (Amaranthus viridis [10]) | Efficacy (Senna tora [28]) | Efficacy (Abutilon theophrasti [31]) | Efficacy (Sida spinosa [33])
100%: inhibition of growth at 125 g/ha (Xanthium strumarium)
70%: Efficacy (Digitaria sanguinalis [4]) | Efficacy (Senna tora [5]) | Efficacy (Abutilon theophrasti [7]) | Efficacy (Portulaca oleracea [15]) | Efficacy (Capsella bursa-pastoris [23]) | Efficacy (Solanum nigrum [26]) | Efficacy (Sida spinosa [30])
95%: Efficacy (Digitaria sanguinalis [1]) | Efficacy (Digitaria sanguinalis [2]) | Efficacy (Portulaca oleracea [3]) | Efficacy (Galinsoga quadriradiata) | Efficacy (Avena fatua [8]) | Efficacy (Eleusine indica [11]) | Efficacy (Capsella bursa-pastoris [13]) | Efficacy (Capsella bursa-pastoris [14]) | Efficacy (Commelina communis [16]) | Efficacy (Amaranthus viridis [17]) | Efficacy (Setaria viridis [18]) | Efficacy (Sorghum halepense [19]) | Efficacy (Portulaca oleracea [20]) | Efficacy (Commelina communis [21]) | Efficacy (Setaria viridis [22]) | Efficacy (Setaria viridis [24]) | Efficacy (Portulaca oleracea [25]) | Efficacy (Avena fatua [27]) | Efficacy (Elymus repens) | Efficacy (Echinochloa crus-galli)
<50%: Efficacy (Cynodon dactylon [6]) | Efficacy (Sorghum halepense [12]) | Efficacy (Eleusine indica [29]) | Efficacy (Cyperus rotundus) | Efficacy (Cynodon dactylon [32]) | Efficacy (Cynodon dactylon [34]) | Efficacy (Cynodon dactylon [35])
